Test results: US20100234442A1, “Compositions and Methods for Treatment and Prevention of Cardiovascular Disease” (Nucitec S.A. de C.V., priority 2009, published 2010)

Tested on: hypercholesterolemic patients
Experiment: 8-week, randomized, double-blind, active-controlled, parallel-group study of vascular markers in hypercholesterolemic patients
Format: in vivo, human
Method: This was a 8-week, randomized, double-blind, active-controlled, parallel-group study. All patients provided written, informed consent before the start of the study.
Patients, investigator staff, persons performing the assessment, and data analysts remained blinded to the identity of the treatment from the time of randomization until data base lock. Treatments were all identical in packaging, labeling, schedule of administration and appearance. Treatments were administered to patients via a single pill.
20 hypercholesterolemic patients, ≧45 years old, were compared in this study. Patients were classified into one of four groups, consisting of five patients in each group.
Group I was treated with a single daily dose of simvastatin alone (20 mg). Group II was treated with a single daily dose simvastatin (20 mg) and acetylsalicylic acid (75 mg). Group III was treated with a single daily dose of simvastatin (20 mg) and enalapril (10 mg). Group IV was treated with a single daily dose of simvastatin (20 mg), acetylsalicylic acid (75 mg), and enalapril (10 mg). All patients were treated for eight weeks.
The primary efficacy variable was the change from the baseline to the final assessment in vascular markers of LDL-Cholesterol (LDL-C), C Reactive Protein (CRP), Interleukin 6 (IL-6), Systolic Blood Pressure (SBP), and nitric oxide (NO).

[1] = change from baseline to final, eight weeks
[2] = final assessment after eight weeks, single daily oral dose

Structure (SMILES): CCC(C)(C)C(=O)O[C@H]1C[C@@H](C)C=C2C=C[C@H](C)[C@H](CC[C@@H]3C[C@@H](O)CC(=O)O3)[C@H]21 [Simvastatin alone, simvastatin]
- IL-6 Baseline (baseline, before treatment): 4.6 pg/mL
- Nitric oxide Baseline (baseline, before treatment): 87 µmol/L
- SBP Baseline (baseline, before treatment): 142 mmHg
- LDL-C Baseline (baseline, before treatment, five patients per group): 159 mg/dL
- CRP % Δ [1]: −18%
- IL-6 % Δ [1]: −39%
- LDL-C % Δ [1]: −38%
- Nitric oxide % Δ [1]: −9%
- SBP % Δ [1]: −0.8%
- IL-6 Final [2]: 2.8 pg/mL
- LDL-C Final [2]: 99 mg/dL
- Nitric oxide Final [2]: 79 µmol/L
- SBP Final [2]: 141 mmHg
